Tested on: Collagen Type I Synthesis in Fibroblast Cell Cultures
Test: Collagen stimulation by ELISA: stimulation of collagen type I synthesis in fibroblast cell cultures
Format: cell-based
Conditions: human skin fibroblasts, 72 h incubation
Method: Type I collagen of in-vitro cultured skin fibroblasts was detected with an ELISA (Enzyme-Linked Immunosorbent Assay). The increase in the collagen production of the cells was quantified in the presence of the peptidic actives by using this method. Human skin fibroblasts were isolated from foreskin and bred in culture medium. After 72 h of incubation with the corresponding peptides (actives) the quantitative determination was performed using an antibody specific for collagen I. [table] The 1st AB (MAB1340; Chemicon) and the 2nd AB (31430; Socochim S.A.) are diluted 1/500 with AB dilution solution. The fibroblasts are incubated until confluent at a density of approx. 5000 cells per well in 96 well-plates in culture medium (37° C./5% CO2) for 3 days. The medium is replaced with test medium with three different concentrations of test substance in triplicate. The following controls are tested on each plate: [table] After incubation of the plates for further 72 hours, the precipitated collagen I is detected and quantified according to the following protocol: • discard medium and wash with 200 μl/well of PBS • fix with 100 μl/well of methanol for 15 min at RT/shaker 600 rpm • discard methanol and block with 200 μl/well of milk solution for 30 min at RT/shaker 600 rpm • discard milk solution and incubate with 100 μl/well of the 1st AB dilution for 2 h at RT/shaker 600 rpm • discard 1st AB dilution and wash 3× with 200 μl/well of washing buffer • incubate with 100 μl/well of the 2nd AB dilution for 3 h at RT/shaker 600 rpm • discard 2nd AB dilution; wash 3× with 200 μl/well of washing buffer and 1× with 100 μl/well of PBS • add 100 μl/well of substrate solution for 20 min at RT/shaker 600 rpm • stop the reaction with 50 μl/well of H2SO4 (2M) and measure at 492 nm.

H-Lys-Val-Lys-NH-Cetyl*3TFA [Example 7]
% Stimulation (Conc. 100 µmol/L): 61%

H-Lys-Thr-Lys-OH*3TFA [Example 5]
% Stimulation (Conc. 50 µmol/L): 35%

Elaidoyl-Lys-Thr-Lys-OH*2TFA [Example 4]
% Stimulation (Conc. 25 µmol/L): 104%

Palm-Lys-Val-Lys-OH *2AcOH [No 4]
% Stimulation (Conc. 50 µmol/L): 48%

H-Lys-Val-Lys-O-Octyl*3TFA [Example 8]
% Stimulation (Conc. 25 µmol/L): 31%

Elaidoyl-Lys-Phe-Lys-OH *2AcOH [Reference compound A, reference compound]
% Stimulation (Conc. 0.01 µmol/L): 23% | % Stimulation (Conc. 20.0 µmol/L): 43%

Source: patent US8420778B2, “Tripeptides and derivatives thereof for cosmetic application in order to improve skin structure” (DSM IP Assets B.V., priority 2003, dated 2013)
